The source of these data is ChEMBL document CHEMBL2203091, “Synthesis of novel МТ3 receptor ligands via an unusual Knoevenagel condensation” (Bioorg Med Chem Lett, 2012).

A word on the IC50: it is the concentration needed to halve the response being measured. Higher therefore signals weaker potency in that assay.

Assay [1] addresses T1, Ribosyldihydronicotinamide dehydrogenase [quinone] (Homo sapiens, UniProt P16083).
T1 sequence (P16083 whole entry): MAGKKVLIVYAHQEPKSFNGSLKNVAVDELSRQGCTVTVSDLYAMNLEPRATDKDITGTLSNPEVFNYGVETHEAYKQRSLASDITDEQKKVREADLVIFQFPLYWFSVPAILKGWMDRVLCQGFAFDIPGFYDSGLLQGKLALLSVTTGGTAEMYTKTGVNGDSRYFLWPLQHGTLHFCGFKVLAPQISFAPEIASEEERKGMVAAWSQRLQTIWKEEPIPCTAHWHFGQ
Put plainly: Binding affinity to […] reductase 2 using MTT and NMeH as substrates.

The target of assay [2] is T2, Ribosyldihydronicotinamide dehydrogenase [quinone] (Homo sapiens) (UniProt P16083).
T2 sequence (whole entry): T1 sequence (P16083 whole entry)
Put plainly: Inhibition of […] reductase 2 using MTT and NMeH as substrates.

Assay [3] concerns the target T2, Ribosyldihydronicotinamide dehydrogenase [quinone] (Homo sapiens). The settings on record: 0.5 to 50 uM.
Description: Inhibition of human recombinant quinine reductase 2 expressed in Escherichia coli BL21 (DE3) using menadione and NMeH as substrates at 0.5 to 50 uM

In the case of `CC(=O)Nc1ccc2c(c1)C(CC#N)C(=O)N2` (stereo not given), the IC50 in assay [1] was 14.1 µM. Besides, in assay [2], the Imax was found to be 100%.

As for `CC(=O)Nc1ccc2c(c1)C(CC#N)C(=O)N2C` (stereo not given), the IC50 in assay [1] is 7 µM. Further, the Imax in assay [2] was determined as 99.2%.

On to `COc1ccc2[nH]cc(CCNC(C)=O)c2c1`, for which the figures for the Imax in assay [2] and in assay [3] were 85.2% and 75%, respectively.

As to `CC(=O)NCCC1C(=O)Nc2ccc(NC(C)=O)cc21` (stereo not given), the IC50 in assay [1] stood at 20.7 µM. In addition, the Imax in assay [2] is 81.7%.

Take `CC(=O)NCCC1(O)C(=O)Nc2ccc(NC(C)=O)cc21` (stereo not given): the IC50 in assay [1] came out at 0.2 µM. Moreover, the Imax in assay [2] worked out at 36.3%.
